Values quoted from earlier work in patent US6455574B1, “Therapeutic combination” (Pfizer Inc., priority 1997, dated 2002).

Assays:
[1] = tested on: calcium channel; settings: see International Patent Application Number PCT/EP94/02697
[2] = tested on: smooth muscle cell migration; settings: see International Patent Application Number PCT/EP95/00847

Structure (SMILES)	calcium channel blocking activity [1]	inhibition of smooth muscle cell migration [2]
CCOC(=O)C1=C(COCCN)NC(C)=C(C(=O)OC)[C@H]1c1ccccc1Cl (single isomer, unassigned) [R(+) isomer]	little or no	potent inhibitor
CCOC(=O)C1=C(COCCN)NC(C)=C(C(=O)OC)[C@@H]1c1ccccc1Cl (single isomer, unassigned) [S(−) isomer]	substantially confined to the S(−) isomer	–
